Laboratory results as given in PubChem BioAssay (NCI).
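Cells were grown in 96-well plates and exposed to each compound for 48 hours at five concentrations; endpoints were interpolated linearly between bracketing concentrations, or set to the highest concentration if not reached. Abbreviation: GI50, concentration required for 50% inhibition of growth. TGI is the concentration that stops growth completely.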

Assays:
Assay in all cases: NCI anticancer screen, dose series, 48 h
OVCAR-4 ovarian = test system: OVCAR-4 ovarian
TK-10 renal = test system: TK-10 renal
KM12 colon = test system: KM12 colon
CAKI-1 renal = test system: CAKI-1 renal
HCC-2998 colon = test system: HCC-2998 colon
RPMI-8226 leukemia = test system: RPMI-8226 leukemia
IGROV1 ovarian = test system: IGROV1 ovarian
UACC-257 melanoma = test system: UACC-257 melanoma
M14 melanoma = test system: M14 melanoma
HOP-92 NSCLC = test system: HOP-92 NSCLC

| SMILES | GI50 (OVCAR-4 ovarian) | TGI (OVCAR-4 ovarian) | GI50 (TK-10 renal) | TGI (TK-10 renal) | GI50 (KM12 colon) | TGI (KM12 colon) | GI50 (CAKI-1 renal) | TGI (CAKI-1 renal) | GI50 (HCC-2998 colon) | TGI (HCC-2998 colon) | GI50 (RPMI-8226 leukemia) | TGI (RPMI-8226 leukemia) | GI50 (IGROV1 ovarian) | TGI (IGROV1 ovarian) | GI50 (UACC-257 melanoma) | TGI (UACC-257 melanoma) | GI50 (M14 melanoma) | TGI (M14 melanoma) | GI50 (HOP-92 NSCLC) | TGI (HOP-92 NSCLC) |
| --- | --- | --- | --- | --- | --- | --- | --- | --- | --- | --- | --- | --- | --- | --- | --- | --- | --- | --- | --- | --- |
| CCC(c1cccc(O)c1)C(CC)c1cccc(O)c1 (stereo not given) | 1.21 µM | 14.3 µM | 2.93 µM | 20.4 µM | 3.03 µM | 13.6 µM | 11.9 µM | 33 µM | 5.18 µM | 18.3 µM | 2.05 µM | 7.73 µM | 10.8 µM | 25.3 µM | 11.5 µM | 26.4 µM | 2.93 µM | 13.2 µM |  |  |
| O=C([CH-]C(=O)C(F)(F)F)c1ccccc1.O=C([CH-]C(=O)C(F)(F)F)c1ccccc1.O=C([CH-]C(=O)C(F)(F)F)c1ccccc1.O=C([CH-]C(=O)C(F)(F)F)c1ccccc1.[Eu+3].c1ccncc1 | 7.62 µM | > 100 µM |  |  | 3.08 µM | 8.11 µM |  |  |  |  | 4.19 µM | 35.3 µM | 7.88 µM | > 100 µM | 11.9 µM | 55.2 µM | 9.52 µM | 39.5 µM | 9.02 µM | 45.6 µM |
| Cn1c(=O)c2c(ncn2CN2CCN(Cn3cnc4c3c(=O)n(C)c(=O)n4C)CC2)n(C)c1=O |  | > 100 µM |  | > 100 µM |  | > 100 µM |  | > 100 µM |  |  |  | 49.5 µM |  | > 100 µM |  | > 100 µM |  | > 100 µM |  | > 100 µM |
| COc1ccc(Cn2c(Cl)c(/C=C3/C(=O)Nc4ccccc43)c3cc(OC)c(C)cc32)cc1 | 4.01 µM | > 100 µM | 13.3 µM | > 100 µM | 3.99 µM | 23.8 µM | 5.81 µM | > 100 µM |  |  | 4.26 µM | 79 µM | 13.3 µM | > 100 µM | 55.3 µM | > 100 µM | 3.27 µM | 15 µM | 53.8 µM | > 100 µM |
| Cc1cc2c(=O)c3ccccc3[nH]c2c(C(=O)O)c1C |  | > 100 µM |  |  |  | > 100 µM |  | > 100 µM |  | > 100 µM |  | > 100 µM |  | > 100 µM |  | > 100 µM |  |  |  |  |
| OCC1OC(n2cnc3c(/C=C(/O)c4ccccc4)ncnc32)C(O)C1O (stereo not given) |  | > 88.1 µM |  | 13.5 µM |  | > 100 µM |  | > 100 µM |  |  |  | > 100 µM |  | > 100 µM |  | > 62.9 µM |  | > 100 µM |  | > 100 µM |
| CC(C)Oc1cc(O)c2c(c1)OCC=C2CCC(=O)O |  | > 100 µM |  | 76.8 µM |  | > 100 µM |  | > 100 µM |  |  |  | 69.3 µM |  | > 100 µM |  | 61.4 µM |  | 98.6 µM |  | 76.6 µM |
| COC(=O)C1=C(C(=O)OC)SC(=C(Cl)C(=S)Sc2ccccc2N)S1 | 80.8 µM | > 100 µM | 30.9 µM | 64.3 µM | > 100 µM | > 100 µM | 41.6 µM | > 100 µM |  |  | 51.8 µM | > 100 µM |  |  | 20.3 µM | 55.7 µM | 7.35 µM | 30.3 µM | 46.4 µM | > 100 µM |
| O=C1C2Cc3ccccc3CN2C(=O)N1CCN1CCCC1 (stereo not given) |  | > 100 µM |  | > 100 µM |  | > 100 µM |  | > 100 µM |  | > 100 µM |  | > 100 µM |  | > 100 µM |  |  |  | > 100 µM |  |  |
| CCCCCCN(CCCCCC)CC(O)c1ccc2c3c(cccc13)CC2 (stereo not given) | 10.3 µM | 36.8 µM | 10.7 µM | 23.2 µM | 5.3 µM | 18.9 µM | 1.96 µM | 9.35 µM | 3.07 µM | 9.67 µM | 3.02 µM | 9.83 µM |  |  | 6.97 µM | 22.6 µM | 3.95 µM | 17 µM | 2.16 µM | 9.27 µM |
| CN=C1SC(=Nc2ccc(N(C)C)cc2)N1C |  | > 100 µM |  | > 100 µM |  | > 100 µM |  |  |  | > 100 µM |  | > 100 µM |  | > 100 µM |  | > 100 µM |  | > 100 µM |  | 53.5 µM |
| COC(=O)C1=C(CS(=O)c2ccccc2[N+](=O)[O-])ON(C)C1c1ccccc1 (stereo not given) |  | > 100 µM |  | > 100 µM |  | > 100 µM |  | > 100 µM |  | 82.9 µM |  | > 100 µM |  | > 100 µM |  | > 100 µM |  | > 100 µM |  |  |
| O=c1[nH]c(=O)n(C2OC3COC2C3O)cc1F (stereo not given) |  | > 100 µM |  | > 100 µM |  | > 100 µM |  | > 100 µM |  | > 100 µM |  | > 100 µM |  |  |  | > 100 µM |  | > 100 µM |  | > 100 µM |
| COC1CC(OC(=O)c2ccccc2)C(OC(=O)c2ccccc2)C(C)O1 (stereo not given) |  |  |  | > 100 µM |  | > 100 µM |  | > 100 µM |  | > 100 µM |  | > 100 µM |  | > 100 µM |  | > 100 µM |  | > 100 µM |  | > 100 µM |
| Cc1ccc2c(c1)C(c1cccc3ccccc13)OC2=O (stereo not given) |  | > 100 µM |  | > 100 µM |  | > 100 µM |  | > 100 µM |  | > 100 µM |  |  |  | > 100 µM |  | > 100 µM |  | > 100 µM |  |  |
| COc1ccc(C2CC(n3nnnc3-c3ccccc3)=NN2)cc1 (stereo not given) | 1.11 µM | 94.8 µM |  |  | 0.617 µM | 13.6 µM | 0.38 µM | 2.98 µM | 3.41 µM | 17.2 µM | 2.88 µM | 53.5 µM | 2.44 µM | > 100 µM | 2.76 µM | 12.6 µM | 0.6 µM | 14.6 µM | 11.6 µM | 42.6 µM |
| CCOc1c(Cl)cc(CNC(C)C(O)c2ccccc2)cc1OC (stereo not given) | 21.6 µM | 87.4 µM | 31.7 µM | > 100 µM | 22.5 µM | 49.2 µM | 15.1 µM | 54.7 µM | 16.6 µM | 32.7 µM | 25.5 µM | 57.7 µM | 70.6 µM | > 100 µM | 19.1 µM | 43.1 µM |  |  | 12.9 µM | 48.5 µM |
| OC12CC/C(=N/OCc3ccccc3)CC1c1ccccc12 (stereo not given) |  | > 100 µM |  | > 100 µM |  | > 100 µM |  | > 100 µM |  | > 100 µM |  | > 100 µM |  | > 100 µM |  | > 100 µM |  | > 100 µM |  |  |
